In patent publication US20120129818A1, “Compositions and Methods for Treatment of Cardiovascular Disease” (priority 2009, published 2012):

Legend:
[1] = molecular target: T1, MPO (Homo sapiens, UniProt P05164); experiment: Analysis of whether the compounds act as MPO substrates (UV-Visible spectrum, TLC); assay type: biochemical
T1 sequence (P05164 49-745): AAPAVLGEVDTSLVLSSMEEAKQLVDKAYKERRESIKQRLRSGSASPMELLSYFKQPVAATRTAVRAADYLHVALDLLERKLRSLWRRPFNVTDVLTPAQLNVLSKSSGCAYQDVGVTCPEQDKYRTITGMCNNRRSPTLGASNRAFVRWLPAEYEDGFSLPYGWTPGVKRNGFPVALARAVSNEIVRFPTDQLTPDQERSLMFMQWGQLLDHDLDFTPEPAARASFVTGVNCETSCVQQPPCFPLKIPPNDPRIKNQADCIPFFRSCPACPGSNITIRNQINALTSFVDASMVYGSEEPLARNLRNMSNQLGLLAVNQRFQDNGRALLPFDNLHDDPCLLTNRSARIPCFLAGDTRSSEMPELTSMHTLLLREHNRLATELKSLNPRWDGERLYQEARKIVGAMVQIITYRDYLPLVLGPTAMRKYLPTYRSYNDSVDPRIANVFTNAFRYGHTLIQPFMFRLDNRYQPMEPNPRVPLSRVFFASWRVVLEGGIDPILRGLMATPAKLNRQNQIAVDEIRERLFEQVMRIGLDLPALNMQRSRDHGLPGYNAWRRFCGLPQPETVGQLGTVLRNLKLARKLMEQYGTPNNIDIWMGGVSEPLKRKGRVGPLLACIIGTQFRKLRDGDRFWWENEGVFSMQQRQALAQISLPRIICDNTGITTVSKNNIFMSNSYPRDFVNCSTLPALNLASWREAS
Experimental: It is known that MPO acts on a variety of substrates and, as such, it was thought that it may be theoretically possible that methylenedioxyphenyl ferulate (Formula (II)) and ferulylproline (Formula (XVI)) could be acting as MPO substrates and competitively masking the formation of products from the added substrates in the above-described experiments. […] In these experiments, a reaction mixture was produced that contained 720 μL of sodium acetate buffer, 100 μL of 100 mM H2O2, 100 μL of MPO enzyme with added compounds of the present invention, and a total volume made up to 1 mL. Upon analysis of this reaction mixture, however, there was no indication of any colored product even when the reaction mixture contained only the inhibitor and not the MPO substrate. To strengthen this finding, thin layer chromatography (TLC) was run with the MPO assay solution and inhibitor (50% ethylacetate:hexane) and spot identification was done in an iodine chamber.

[2] = tested on: human low-density lipoprotein (LDL); experiment: Cu (II) induced LDL oxidation, conjugated diene formation at 234 nm; assay type: biochemical; conditions: 10 and 25 μM compound, 100 μg LDL protein, 5 μM Cu (II), pH 7.4, room temperature (FIG. 6)
Experimental: To determine the effect of the presently-disclosed compounds on low-density lipoprotein (LDL) oxidation, standard LDL oxidation reactions were carried out in the presence of methylenedioxyphenyl ferulate (FMDP; Formula (II)) and ferulylproline (Formula (XVI). Briefly, the in vitro oxidation reaction of LDL was carried out at room temperature in potassium phosphate buffer, pH 7.4. The reaction mixture contained 100 μg LDL protein and 5 μM Cu (II) with a final volume of 1 mL. The oxidation of LDL was followed by measuring the formation of a conjugated diene at 234 nm for a total of 300 min using a spectrophotometer. The time course of Cu (II) induced LDL oxidation was then performed. […] The increase in the oxidation of LDL in presence of 10 μM and 25 μM ferulylproline was attributed to the formation of Cu (II)-ferulylproline complex which would act as a pro-oxidant of LDL. Oxidation of LDL lipid by Cu (II) mediated oxidation both in the absence of any inhibitor and in the presence of 10 μM and 25 μM of methylenedioxyphenyl ferulate and ferulylproline was performed by monitoring the oxidation for 200 minutes.

[3] = molecular target: T2, human MPO (Homo sapiens, UniProt P05164); experiment: Myeloperoxidase (MPO) activity assay with tetramethyl benzidine (TMB) substrate; assay type: biochemical; conditions: for Ki: 50 mM sodium acetate buffer pH 5.6, read-out: Ki (inhibitory values of MPO)
T2 construct: purchased Sigma-Aldrich
Description: Various methods of measuring a reduction in MPO activity are known to those of ordinary skill in the art and can be used in accordance with the present invention. For example, in one embodiment, MPO activity can be measured by combining an amount of an MPO enzyme, or a sample containing an MPO enzyme, with H2O2, a tetramethyl benzidine (TMB) substrate, and an MPO inhibitor (e.g., a compound of the present invention), and then measuring the optical density of the resulting product.
Typically, the reaction mixture (200 μl) contained 20 mU human MPO (Sigma-Aldrich, St. Louis, Mo.), 400 nmol H2O2, 1.6 μmol of TMB, and varying concentrations of methylenedioxyphenyl ferulate (Formula (II)) or ferulylproline (Formula (XVI)).
The reaction was performed in a volume of 200 μl with 50 mM sodium acetate buffer at pH 5.6. The reaction was initiated by adding MPO and the optical density of the product formed was then read at 650 nm in a microplate reader at various time points.

[4] = Chlorotaurine formation (HOCl-mediated chlorination of taurine, TNB readout at 412 nm); conditions: various concentrations, 37° C. for 10 min, absorption 412 nm (FIG. 8)
Experimental: Chlorotaurine is formed by the oxidation of taurine by the chlorinating oxidant hypochlorous acid (HOCl), which is formed by MPO-mediated 2-electron oxidation of chloride by H2O2. To determine if the compounds of the present invention were capable of inhibiting the formation of chlorotaurine, a reaction mixture was produced that contained 50 uL of 150 mM taurine, various concentrations of methylenedioxyphenyl ferulate (Formula (II)) or ferulylproline (Formula (XVI)), and 250 μL of hypochlorous acid in sodium phosphate buffer. The mixture was incubated at 37° C. for 10 min followed by addition of 60 μL of 40 mM thionitrobenzoic acid (TNB). The whole solution was made up to 1.5 mL and absorption was measured at 412 nm using a UV-Visible spectrophotometer. […] Furthermore, although both of these compounds react differently toward chlorotaurine oxidation, they seem to show specificity toward MPO inhibition.

[5] = tested on: xanthine/xanthine oxidase; experiment: Superoxide mediated cytochrome c reduction catalyzed by xanthine/xanthine oxidase; assay type: biochemical; conditions: different concentrations of inhibitor, 549 nm (FIG. 7)
Experimental: The reaction mixture contained 250 μL of 5 mM hypoxanthine (1.25 mM final concentration), 100 μL of cytochrome c in buffer, 10 μL of xanthine oxidase enzyme and different concentrations of inhibitor. The final volume was made up to 1 mL with phosphate buffer. The oxidation was monitored by scanning wavelengths between 500 nm to 600 nm with five measurements. The cycle scanning time was 30 seconds.

Product formation during the MPO reaction by TLC / MPO substrate behaviour ([1]; MPO assay solution and inhibitor, 50% ethylacetate:hexane, iodine chamber)	Product formation in UV-Visible spectrum between 200 to 700 nm with and without MPO ([1]; sodium acetate buffer, H2O2, MPO enzyme, no MPO substrate (FIGS. 9 and 10))	Ki [3] [µM]	Inhibition of MPO activity ([3]; varying concentrations, OD 650 nm (FIGS. 4 and 5))	Inhibition of superoxide mediated cytochrome c reduction [5]	SMILES	Effect on Cu (II) induced LDL oxidation [2]	Inhibition of chlorotaurine formation [4]
do not act as an MPO substrate	failed to show any product	4	significantly inhibited MPO	inhibited the reaction	COc1cc(/C=C/C(=O)N2CCCC2C(=O)O)ccc1O (centres unmarked) [ferulylproline]	acted as a pro-oxidant reducing the lag time	did not cause any inhibition
–	–	8.5	–	–	COc1cc(/C=C/C(=O)Oc2ccc3c(c2)OCO3)ccc1O [methylenedioxyphenyl ferulate]	–	–
